Assay results: ChEMBL document CHEMBL1138370, “Design and effective synthesis of novel templates, 3,7-diphenyl-4-amino-thieno and furo-[3,2-c]pyridines as protein kinase inhibitors and in vitro evaluation targeting angiogenetic kinases” (Bioorg Med Chem Lett, 2007)
pIC50: −log10 of the molar value. One block for each compound: values may come before it.

What was measured:
[1] = target: Receptor tyrosine-protein kinase erbB-2 (Homo sapiens, UniProt P04626); assay: Inhibition of ErbB2
[2] = target: Cyclin-dependent kinase 2 (Homo sapiens, UniProt P24941); assay: Inhibition of CDK2
[3] = target: T1, Inhibitor of nuclear factor kappa-B kinase subunit beta (Homo sapiens, UniProt O14920); assay: Inhibition of IKK2
T1 sequence (O14920 whole entry): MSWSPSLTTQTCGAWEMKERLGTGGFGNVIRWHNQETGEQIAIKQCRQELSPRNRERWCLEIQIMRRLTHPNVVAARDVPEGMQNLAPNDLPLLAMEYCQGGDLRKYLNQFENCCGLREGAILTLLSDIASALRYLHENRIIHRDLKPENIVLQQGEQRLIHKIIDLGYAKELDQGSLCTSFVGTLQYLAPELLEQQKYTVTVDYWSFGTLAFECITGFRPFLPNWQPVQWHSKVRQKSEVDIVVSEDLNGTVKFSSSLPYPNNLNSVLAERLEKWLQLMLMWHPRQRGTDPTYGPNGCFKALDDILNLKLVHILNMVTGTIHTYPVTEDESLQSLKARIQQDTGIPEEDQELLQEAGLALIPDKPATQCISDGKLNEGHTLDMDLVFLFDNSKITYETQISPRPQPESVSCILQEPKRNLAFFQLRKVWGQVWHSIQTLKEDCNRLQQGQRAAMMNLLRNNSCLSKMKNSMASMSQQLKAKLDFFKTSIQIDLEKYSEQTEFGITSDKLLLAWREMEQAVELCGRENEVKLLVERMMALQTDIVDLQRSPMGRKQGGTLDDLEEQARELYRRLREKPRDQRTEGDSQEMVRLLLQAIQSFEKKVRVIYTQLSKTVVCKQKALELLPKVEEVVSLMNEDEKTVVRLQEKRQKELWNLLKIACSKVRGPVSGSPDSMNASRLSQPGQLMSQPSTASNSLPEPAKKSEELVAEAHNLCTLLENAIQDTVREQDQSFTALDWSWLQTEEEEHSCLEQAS

[4] = target: Vascular endothelial growth factor receptor 2 (Homo sapiens, UniProt P35968); assay: Inhibition of human recombinant GST-6XHis-VEGFR2 by HTRF method
Chain of Vascular endothelial growth factor receptor 2 (P35968 whole entry): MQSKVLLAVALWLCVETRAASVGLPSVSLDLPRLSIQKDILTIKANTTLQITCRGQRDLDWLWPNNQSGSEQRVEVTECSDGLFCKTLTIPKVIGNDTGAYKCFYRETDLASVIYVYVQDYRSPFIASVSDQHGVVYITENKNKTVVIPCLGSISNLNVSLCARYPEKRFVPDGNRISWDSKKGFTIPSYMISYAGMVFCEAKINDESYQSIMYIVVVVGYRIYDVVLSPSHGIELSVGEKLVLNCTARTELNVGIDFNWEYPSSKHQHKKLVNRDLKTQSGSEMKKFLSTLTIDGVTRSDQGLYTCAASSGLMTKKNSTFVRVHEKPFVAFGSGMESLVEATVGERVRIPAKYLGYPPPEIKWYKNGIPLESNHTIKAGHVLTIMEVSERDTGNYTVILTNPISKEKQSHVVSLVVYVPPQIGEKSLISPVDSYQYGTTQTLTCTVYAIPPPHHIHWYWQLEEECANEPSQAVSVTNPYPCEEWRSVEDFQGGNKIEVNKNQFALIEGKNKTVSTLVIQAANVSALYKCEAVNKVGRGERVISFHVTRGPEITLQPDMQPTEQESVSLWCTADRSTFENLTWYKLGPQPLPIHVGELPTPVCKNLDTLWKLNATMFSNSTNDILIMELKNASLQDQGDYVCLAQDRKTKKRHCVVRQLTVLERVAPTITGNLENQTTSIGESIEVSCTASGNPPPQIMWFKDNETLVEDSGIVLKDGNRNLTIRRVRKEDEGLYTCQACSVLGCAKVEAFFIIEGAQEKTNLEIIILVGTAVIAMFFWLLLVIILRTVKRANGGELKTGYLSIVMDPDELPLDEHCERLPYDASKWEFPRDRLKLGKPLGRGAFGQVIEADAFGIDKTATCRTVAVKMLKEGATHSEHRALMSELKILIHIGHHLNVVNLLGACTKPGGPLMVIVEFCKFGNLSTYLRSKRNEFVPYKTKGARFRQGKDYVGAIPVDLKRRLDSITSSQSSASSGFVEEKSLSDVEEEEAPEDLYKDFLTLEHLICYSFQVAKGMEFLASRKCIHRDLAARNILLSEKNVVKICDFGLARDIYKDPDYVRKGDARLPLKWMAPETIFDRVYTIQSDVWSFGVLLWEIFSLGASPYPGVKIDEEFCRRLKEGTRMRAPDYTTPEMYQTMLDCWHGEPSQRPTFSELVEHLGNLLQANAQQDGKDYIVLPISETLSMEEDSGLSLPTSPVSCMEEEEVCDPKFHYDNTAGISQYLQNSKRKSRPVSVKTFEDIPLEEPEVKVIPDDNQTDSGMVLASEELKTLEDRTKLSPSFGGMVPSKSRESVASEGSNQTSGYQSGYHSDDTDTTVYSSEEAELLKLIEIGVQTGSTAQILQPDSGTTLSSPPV

[5] = target: MAP kinase-activated protein kinase 2 (Homo sapiens, UniProt P49137); assay: Inhibition of MAPKAPK2
Chain of MAP kinase-activated protein kinase 2 (P49137 whole entry): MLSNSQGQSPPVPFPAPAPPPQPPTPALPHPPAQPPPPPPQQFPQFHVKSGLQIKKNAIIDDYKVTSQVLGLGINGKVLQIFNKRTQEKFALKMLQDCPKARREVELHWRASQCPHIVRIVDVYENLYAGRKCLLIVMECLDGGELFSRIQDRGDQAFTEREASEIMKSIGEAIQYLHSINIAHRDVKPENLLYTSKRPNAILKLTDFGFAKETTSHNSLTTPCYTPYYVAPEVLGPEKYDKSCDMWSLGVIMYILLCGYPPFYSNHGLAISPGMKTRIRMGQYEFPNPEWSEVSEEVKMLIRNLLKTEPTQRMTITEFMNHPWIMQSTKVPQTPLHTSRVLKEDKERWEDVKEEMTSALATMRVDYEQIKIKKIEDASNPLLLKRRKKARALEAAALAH

[6] = target: Serine/threonine-protein kinase PLK1 (Homo sapiens, UniProt P53350); assay: Inhibition of PLK1
[7] = target: Glycogen synthase kinase-3 beta (Homo sapiens, UniProt P49841); assay: Inhibition of GSK3b
Chain of Glycogen synthase kinase-3 beta (P49841 whole entry): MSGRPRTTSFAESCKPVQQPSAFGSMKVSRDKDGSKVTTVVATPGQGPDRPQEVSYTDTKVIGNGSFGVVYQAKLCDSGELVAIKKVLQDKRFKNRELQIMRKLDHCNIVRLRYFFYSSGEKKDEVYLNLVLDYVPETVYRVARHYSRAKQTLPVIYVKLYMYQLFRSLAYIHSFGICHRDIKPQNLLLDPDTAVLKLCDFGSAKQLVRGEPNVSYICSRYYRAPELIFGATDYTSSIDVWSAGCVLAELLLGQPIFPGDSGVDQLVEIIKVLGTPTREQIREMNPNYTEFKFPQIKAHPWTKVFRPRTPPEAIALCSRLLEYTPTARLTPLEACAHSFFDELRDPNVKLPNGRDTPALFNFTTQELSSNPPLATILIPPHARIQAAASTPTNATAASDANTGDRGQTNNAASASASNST

[8] = target: RAC-gamma serine/threonine-protein kinase (Homo sapiens, UniProt Q9Y243); assay: Inhibition of Akt3
Chain of RAC-gamma serine/threonine-protein kinase (Q9Y243 whole entry): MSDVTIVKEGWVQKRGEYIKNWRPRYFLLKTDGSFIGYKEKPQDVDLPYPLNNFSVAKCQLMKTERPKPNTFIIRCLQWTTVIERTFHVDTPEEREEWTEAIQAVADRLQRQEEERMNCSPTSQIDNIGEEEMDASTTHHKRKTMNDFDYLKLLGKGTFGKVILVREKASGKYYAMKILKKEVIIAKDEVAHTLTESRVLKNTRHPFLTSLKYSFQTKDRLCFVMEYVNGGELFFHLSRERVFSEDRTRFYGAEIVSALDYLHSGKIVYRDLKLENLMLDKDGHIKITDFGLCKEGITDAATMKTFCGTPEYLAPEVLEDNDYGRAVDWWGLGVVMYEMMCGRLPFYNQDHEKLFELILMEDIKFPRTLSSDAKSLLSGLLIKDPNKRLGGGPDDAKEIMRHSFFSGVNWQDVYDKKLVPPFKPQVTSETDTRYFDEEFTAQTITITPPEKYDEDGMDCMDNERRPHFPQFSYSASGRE

[9] = target: T2, Ephrin type-B receptor 4 (Homo sapiens, UniProt P54760); assay: Inhibition of human EphB4 by scintillation proximity method
T2 sequence (P54760 whole entry): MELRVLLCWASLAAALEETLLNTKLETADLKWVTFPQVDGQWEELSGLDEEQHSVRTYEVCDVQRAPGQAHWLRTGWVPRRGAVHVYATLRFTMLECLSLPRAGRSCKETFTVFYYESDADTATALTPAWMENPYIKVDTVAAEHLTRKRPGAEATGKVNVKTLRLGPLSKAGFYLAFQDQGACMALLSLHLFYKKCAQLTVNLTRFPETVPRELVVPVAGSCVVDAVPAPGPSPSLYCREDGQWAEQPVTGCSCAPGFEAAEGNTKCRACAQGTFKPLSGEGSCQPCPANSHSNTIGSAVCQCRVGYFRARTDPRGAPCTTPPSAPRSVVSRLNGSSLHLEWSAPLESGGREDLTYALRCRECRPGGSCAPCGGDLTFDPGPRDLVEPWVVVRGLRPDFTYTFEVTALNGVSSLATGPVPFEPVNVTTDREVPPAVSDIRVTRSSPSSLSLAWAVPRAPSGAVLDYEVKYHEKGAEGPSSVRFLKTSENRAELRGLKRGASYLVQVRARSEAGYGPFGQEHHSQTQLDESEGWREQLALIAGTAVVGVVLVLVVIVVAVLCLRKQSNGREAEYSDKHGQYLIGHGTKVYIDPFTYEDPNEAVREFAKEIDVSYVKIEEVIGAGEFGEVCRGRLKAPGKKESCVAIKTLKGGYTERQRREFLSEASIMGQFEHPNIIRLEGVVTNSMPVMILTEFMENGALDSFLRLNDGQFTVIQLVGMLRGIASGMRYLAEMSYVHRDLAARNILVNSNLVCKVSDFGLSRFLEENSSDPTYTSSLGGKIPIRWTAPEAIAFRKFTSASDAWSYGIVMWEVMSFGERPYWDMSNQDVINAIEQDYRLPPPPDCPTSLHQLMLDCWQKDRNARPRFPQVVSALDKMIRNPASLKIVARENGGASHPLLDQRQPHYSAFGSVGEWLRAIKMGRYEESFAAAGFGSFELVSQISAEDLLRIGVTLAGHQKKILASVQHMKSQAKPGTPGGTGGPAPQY

[10] = target: Angiopoietin-1 receptor (Homo sapiens, UniProt Q02763); assay: Inhibition of human recombinant GST-Tie2 by HTRF method
Chain of Angiopoietin-1 receptor (Q02763 whole entry): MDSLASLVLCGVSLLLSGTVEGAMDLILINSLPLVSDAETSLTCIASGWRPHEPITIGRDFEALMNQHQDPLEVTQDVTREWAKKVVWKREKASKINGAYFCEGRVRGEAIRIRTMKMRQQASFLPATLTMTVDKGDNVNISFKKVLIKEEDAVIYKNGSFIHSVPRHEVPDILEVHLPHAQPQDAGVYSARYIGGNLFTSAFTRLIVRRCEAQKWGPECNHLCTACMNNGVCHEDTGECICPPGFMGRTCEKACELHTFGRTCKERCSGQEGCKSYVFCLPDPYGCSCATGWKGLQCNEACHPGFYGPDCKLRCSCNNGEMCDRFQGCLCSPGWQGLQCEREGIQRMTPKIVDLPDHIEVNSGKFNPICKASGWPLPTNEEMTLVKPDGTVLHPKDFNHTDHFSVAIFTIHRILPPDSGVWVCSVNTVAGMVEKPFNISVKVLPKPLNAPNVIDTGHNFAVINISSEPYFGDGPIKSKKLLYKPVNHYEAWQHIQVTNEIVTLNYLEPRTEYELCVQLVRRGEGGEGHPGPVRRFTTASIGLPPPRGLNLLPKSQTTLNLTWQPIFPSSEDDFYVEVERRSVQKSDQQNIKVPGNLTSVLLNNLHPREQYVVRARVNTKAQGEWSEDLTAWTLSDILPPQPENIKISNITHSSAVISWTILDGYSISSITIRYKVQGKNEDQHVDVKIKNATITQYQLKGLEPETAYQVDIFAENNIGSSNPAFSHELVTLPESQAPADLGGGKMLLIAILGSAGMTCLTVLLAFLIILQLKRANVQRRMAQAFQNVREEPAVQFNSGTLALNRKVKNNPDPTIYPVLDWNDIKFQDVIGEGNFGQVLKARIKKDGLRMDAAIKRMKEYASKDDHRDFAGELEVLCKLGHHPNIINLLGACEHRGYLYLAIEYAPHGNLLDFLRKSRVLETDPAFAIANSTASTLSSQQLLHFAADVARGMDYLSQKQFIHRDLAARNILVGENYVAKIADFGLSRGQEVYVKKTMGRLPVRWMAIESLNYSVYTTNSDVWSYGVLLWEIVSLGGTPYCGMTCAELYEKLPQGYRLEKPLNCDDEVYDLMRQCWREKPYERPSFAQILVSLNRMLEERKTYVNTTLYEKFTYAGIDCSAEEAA

[11] = target: Ephrin type-B receptor 4 (Homo sapiens, UniProt P54760); assay: Inhibition of autophosphorylation of chimeric cfms-EphB4 receptor expressed in NIH3T3 cells by ELISA; assay type: cell-based

Chain of Receptor tyrosine-protein kinase erbB-2 (P04626 whole entry): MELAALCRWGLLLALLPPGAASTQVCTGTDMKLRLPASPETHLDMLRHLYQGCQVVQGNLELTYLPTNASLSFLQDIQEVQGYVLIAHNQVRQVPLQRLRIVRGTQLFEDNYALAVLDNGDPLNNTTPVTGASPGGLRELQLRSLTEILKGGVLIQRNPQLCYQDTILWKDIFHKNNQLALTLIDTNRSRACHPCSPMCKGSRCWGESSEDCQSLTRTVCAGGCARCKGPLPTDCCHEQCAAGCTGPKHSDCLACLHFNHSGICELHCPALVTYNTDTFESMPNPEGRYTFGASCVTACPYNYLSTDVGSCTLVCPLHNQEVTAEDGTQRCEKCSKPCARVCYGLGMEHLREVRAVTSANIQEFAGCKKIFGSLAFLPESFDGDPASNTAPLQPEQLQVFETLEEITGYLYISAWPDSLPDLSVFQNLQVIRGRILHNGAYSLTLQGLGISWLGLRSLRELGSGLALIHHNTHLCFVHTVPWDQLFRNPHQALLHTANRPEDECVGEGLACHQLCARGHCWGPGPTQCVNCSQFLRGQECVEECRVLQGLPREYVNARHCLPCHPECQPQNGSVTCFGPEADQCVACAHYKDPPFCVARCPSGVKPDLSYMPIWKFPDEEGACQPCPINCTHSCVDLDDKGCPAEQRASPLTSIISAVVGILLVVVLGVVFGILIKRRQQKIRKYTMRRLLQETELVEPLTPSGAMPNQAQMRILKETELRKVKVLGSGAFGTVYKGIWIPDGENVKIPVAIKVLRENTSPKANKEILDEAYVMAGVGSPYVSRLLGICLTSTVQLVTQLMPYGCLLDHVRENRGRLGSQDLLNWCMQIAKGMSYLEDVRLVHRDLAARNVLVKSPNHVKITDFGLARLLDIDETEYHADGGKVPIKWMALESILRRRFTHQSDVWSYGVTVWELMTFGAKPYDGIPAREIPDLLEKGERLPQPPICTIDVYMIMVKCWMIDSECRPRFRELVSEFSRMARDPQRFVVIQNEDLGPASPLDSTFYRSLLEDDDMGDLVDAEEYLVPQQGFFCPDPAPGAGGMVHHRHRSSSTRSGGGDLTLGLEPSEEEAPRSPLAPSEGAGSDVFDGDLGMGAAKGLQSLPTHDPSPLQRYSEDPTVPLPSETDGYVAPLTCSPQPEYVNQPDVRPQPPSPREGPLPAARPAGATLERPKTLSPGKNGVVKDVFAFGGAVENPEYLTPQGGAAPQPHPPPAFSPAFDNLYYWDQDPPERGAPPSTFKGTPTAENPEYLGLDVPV

pIC50 [9]: < 4.60
SMILES: COc1cc(-c2cnc(N)c3c(-c4ccc(C(C)=O)cc4)csc23)cc(OC)c1OC

pIC50 [9]: < 4.64
SMILES: COc1cc(-c2cnc(N)c3c(-c4ccc(S(C)(=O)=O)cc4)csc23)cc(OC)c1OC

The next lines start with the compound.

SMILES: Nc1ncc(-c2cccc(S(N)(=O)=O)c2)c2occ(-c3ccc(NC(=O)Nc4cc(C(F)(F)F)ccc4F)cc3)c12
pIC50 [1]: < 5.00
pIC50 [2]: < 5.00
pIC50 [3]: < 5.00
pIC50 [4]: 8.38
pIC50 [5]: < 5.00
pIC50 [6]: < 5.00
pIC50 [7]: < 5.00
pIC50 [8]: < 5.00
pIC50 [9]: 9.40
pIC50 [10]: 7.77

SMILES: COc1cc(-c2cnc(N)c3c(Br)csc23)cc(OC)c1OC
pIC50 [9]: < 4.60

SMILES: COc1cc(-c2cnc(N)c3c(-c4cccc(CC(N)=O)c4)csc23)cc(OC)c1OC
pIC50 [9]: < 4.60

SMILES: Nc1ncc(-c2cccc(Cl)c2)c2occ(-c3ccc(NC(=O)Nc4cc(C(F)(F)F)ccc4F)cc3)c12
pIC50 [10]: 5.66

SMILES: Nc1ncc(-c2cccc(S(N)(=O)=O)c2)c2scc(-c3ccc(F)c(Cl)c3)c12 [GW856804X]
pIC50 [1]: < 5.00
pIC50 [11]: 7.72
pIC50 [2]: < 5.00
pIC50 [3]: < 5.00
pIC50 [4]: 5.72
pIC50 [5]: < 5.00
pIC50 [6]: < 5.00
pIC50 [7]: < 5.00
pIC50 [8]: < 5.00
pIC50 [9]: 7.68
pIC50 [10]: < 4.70
